Patent US20090312288A1 (TAKEDA PHARMACEUTICAL COMPANY LIMITED, priority 2008, published 2009)

The molecules below were run against Aurora B/INCENP (Homo sapiens, UniProt Q96GD4) (assay: Determination of inhibition of AIK: Aurora B/INCENP direct fluorescence polarization (IMAP) assay). Conditions: 10 uM ATP, 0.8 nM Aurora B/INCENP; values given as bins; read-out: IC50 of Exemplified Compounds Against AIK B.
Assay type: biochemical
Description: Detection of the reaction product is performed by addition of Progressive IMAP binding reagent (Molecular Devices). Reaction product may be determined quantitatively by FP using an Analyst HT plate reader (Molecular Devices) with an excitation wavelength at 485 nm and emission at 530 nm and using a Fluorescein 505 dichroic mirror.
The assay reaction may be initiated as follows: 2 ul of (3×) 300 nM Fl-Peptide/30 uM ATP was added to each well of the plate, followed by the addition of 2 ul of (3×) inhibitor (2 fold serial dilutions for 11 data points for each inhibitor) containing 15% DMSO. Two microliters of (3×) 2.4 nM AuroraB/INCENP solution may be added to initiate the reaction (final enzyme concentration was 0.8 nM for Aurora B/INCENP). The reaction mixture may then be incubated at room temperature for 45 min, and quenched and developed by addition of 20 ul of 1 to 400 diluted Progressive IMAP binding reagent in 1× proprietary Progressive IMAP binding buffer A. Fluorescence polarization readings of the resulting reaction mixtures may be measured after a 60-minute incubation at room temperature.
IC50 values may be calculated by non-linear curve fitting of the compound concentrations and fluorescent polarization values to the standard IC50 equation.

Aurora B/INCENP, sequence (Q96GD4 whole entry): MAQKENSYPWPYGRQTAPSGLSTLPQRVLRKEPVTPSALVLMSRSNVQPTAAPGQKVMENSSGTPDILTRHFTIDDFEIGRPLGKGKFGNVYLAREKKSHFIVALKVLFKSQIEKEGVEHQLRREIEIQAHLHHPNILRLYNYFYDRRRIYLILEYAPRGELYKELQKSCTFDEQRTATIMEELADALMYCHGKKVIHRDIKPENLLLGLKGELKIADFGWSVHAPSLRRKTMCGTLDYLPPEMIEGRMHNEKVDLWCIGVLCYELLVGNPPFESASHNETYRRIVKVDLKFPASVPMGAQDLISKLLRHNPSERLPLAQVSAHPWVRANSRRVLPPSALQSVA
Aurora B/INCENP, sequence (Q9NQS7 whole entry partner): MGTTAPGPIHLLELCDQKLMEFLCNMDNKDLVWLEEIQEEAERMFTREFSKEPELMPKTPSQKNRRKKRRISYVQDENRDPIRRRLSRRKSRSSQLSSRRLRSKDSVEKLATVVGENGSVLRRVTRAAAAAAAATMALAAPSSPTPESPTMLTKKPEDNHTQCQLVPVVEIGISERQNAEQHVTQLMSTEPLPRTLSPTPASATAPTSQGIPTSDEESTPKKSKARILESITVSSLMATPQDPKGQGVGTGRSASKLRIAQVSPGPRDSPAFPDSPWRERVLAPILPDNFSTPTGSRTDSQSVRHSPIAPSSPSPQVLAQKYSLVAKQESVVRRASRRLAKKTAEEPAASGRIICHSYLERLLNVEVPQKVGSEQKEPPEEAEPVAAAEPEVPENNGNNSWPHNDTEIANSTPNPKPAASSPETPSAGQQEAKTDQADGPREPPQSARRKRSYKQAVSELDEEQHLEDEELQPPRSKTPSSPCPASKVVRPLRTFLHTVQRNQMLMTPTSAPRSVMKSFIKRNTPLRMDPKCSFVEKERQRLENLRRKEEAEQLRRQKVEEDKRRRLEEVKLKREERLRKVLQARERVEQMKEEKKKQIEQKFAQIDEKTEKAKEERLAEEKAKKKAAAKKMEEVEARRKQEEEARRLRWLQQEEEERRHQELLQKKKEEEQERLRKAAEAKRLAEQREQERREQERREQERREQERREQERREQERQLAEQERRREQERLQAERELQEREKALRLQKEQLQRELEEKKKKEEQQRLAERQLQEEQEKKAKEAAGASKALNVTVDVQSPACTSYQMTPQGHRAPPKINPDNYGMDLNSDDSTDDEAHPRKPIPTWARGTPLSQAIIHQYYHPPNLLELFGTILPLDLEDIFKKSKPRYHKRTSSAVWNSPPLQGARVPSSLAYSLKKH

| Structure (SMILES) | IC50 [nM] |
| --- | --- |
| CCS(=O)(=O)c1cccc(-c2cnc(OCC3CCN(C)CC3)c3[nH]c4ncc(Cl)cc4c23)c1 [Compound 72, 3-Chloro-5-(3-ethanesulfonyl-phenyl)-8-(1-methyl-piperidin-4-ylmethoxy)-9H-dipyrido[2,3-b;4′,3′-d]pyrrole] | < 4 |
| CCS(=O)(=O)c1cccc(-c2cnc(OC[C@@H](C)O)c3[nH]c4ncc(Cl)cc4c23)c1 [Compound 73, (R)-1-[3-Chloro-5-(3-ethanesulfonyl-phenyl)-9H-dipyrido[2,3-b;4′,3′-d]pyrrol-8-yloxy]-propan-2-ol] | < 4 |
| CCS(=O)(=O)c1cccc(-c2cnc(NC)c3[nH]c4ncc(C)cc4c23)c1 [Compound 74, 2-[5-(3-Ethanesulfonyl-phenyl)-3-methyl-9H-dipyrido[2,3-b;4′,3′-d]pyrrol-8-yl]methyl amine] | < 4 |
| CCS(=O)(=O)c1cccc(-c2cnc(SC)c3[nH]c4ncc(C)cc4c23)c1 [Compound 75] | < 4 |
| CCSc1ncc(-c2cccc(S(=O)(=O)CC)c2)c2c1[nH]c1ncc(C)cc12 [Compound 76] | 5.6 to 8.5 |
| CCSc1ncc(-c2cccc(NC(=O)C3CC3)c2)c2c1[nH]c1ncc(C)cc12 [Compound 79] | > 13 |
| CCS(=O)(=O)c1cccc(-c2cc(C(=O)NC3CCN(C)CC3)c(C)c3[nH]c4ncc(C)cc4c23)c1 [Compound 88, 5-(3-(ethylsulfonyl)phenyl)-3,8-dimethyl-N-(1-methylpiperidin-4-yl)-9H-pyrido[2,3-b]indole-7-carboxamide] | 8.6 to 13 |
| CCS(=O)(=O)c1cccc(-c2cc(C(=O)NCCNC)c(C)c3[nH]c4ncc(C)cc4c23)c1 [Compound 89, N-(2-(methylamino)ethyl)-5-(3-(ethylsulfonyl)phenyl)-3,8-dimethyl-9H-pyrido[2,3-b]indole-7-carboxamide] | 8.6 to 13 |
| CCS(=O)(=O)c1cccc(-c2cc(C(=O)NCCOC)c(C)c3[nH]c4ncc(C)cc4c23)c1 [Compound 90, N-(2-(methoxy)ethyl)-5-(3-(ethylsulfonyl)phenyl)-3,8-dimethyl-9H-pyrido[2,3-b]indole-7-carboxamide] | 5.6 to 8.5 |
| CCS(=O)(=O)c1cccc(-c2cc(C(=O)N(C)CCN(C)C)c(C)c3[nH]c4ncc(C)cc4c23)c1 [Compound 91, N-(2-(dimethylamino)ethyl)-N-methyl-5-(3-(ethylsulfonyl)phenyl)-3,8-dimethyl-9H-pyrido[2,3-b]indole-7-carboxamide] | > 13 |
| CCS(=O)(=O)c1cccc(-c2cc(C(=O)N(C)C)c(C)c3[nH]c4ncc(C)cc4c23)c1 [Compound 92, N,N-dimethyl-5-(3-(ethylsulfonyl)phenyl)-3,8-dimethyl-9H-pyrido[2,3-b]indole-7-methylcarboxamide] | 5.6 to 8.5 |
| CCS(=O)(=O)c1cccc(-c2cc(C(=O)N3CCN(C)CC3)c(C)c3[nH]c4ncc(C)cc4c23)c1 [Compound 93] | > 13 |
| CCS(=O)(=O)c1cccc(-c2cc(C(=O)NCCN3CCNCC3)c(C)c3[nH]c4ncc(C)cc4c23)c1 [Compound 94] | > 13 |
| CCS(=O)(=O)c1cccc(-c2cc(C(=O)NCCCN3CCN(C)CC3)c(C)c3[nH]c4ncc(C)cc4c23)c1 [Compound 95, 5-(3-(ethylsulfonyl)phenyl)-3,8-dimethyl-N-(3-(4-methylpiperazin-1-yl)propyl)-9H-pyrido[2,3-b]indole-7-carboxamide] | > 13 |
| CCS(=O)(=O)c1cccc(-c2cc(C(=O)N3CCOCC3)c(C)c3[nH]c4ncc(C)cc4c23)c1 [Compound 96] | 8.6 to 13 |
| CCS(=O)(=O)c1cccc(-c2cc(C(=O)N3CCC3)c(C)c3[nH]c4ncc(C)cc4c23)c1 [Compound 97, azetidin-1-yl(5-(3-(ethylsulfonyl)phenyl)-3,8-dimethyl-9H-pyrido[2,3-b]indol-7-yl)methanone] | > 13 |
| CCS(=O)(=O)c1cccc(-c2cc(C(=O)N3CCSC3)c(C)c3[nH]c4ncc(C)cc4c23)c1 [Compound 98, (5-(3-(ethylsulfonyl)phenyl)-3,8-dimethyl-9H-pyrido[2,3-b]indol-7-yl)(thaiazolidin-3-yl)methanone] | 5.6 to 8.5 |
| CCS(=O)(=O)c1cccc(-c2cc(C(=O)NC[C@@H](C)O)c(C)c3[nH]c4ncc(C)cc4c23)c1 [Compound 99, (R)-5-(3-(ethylsulfonyl)phenyl)-N-(2-hydroxypropyl)-3,8-dimethyl-9H-pyrido[2,3-b]indole-7-carboxamide] | 8.6 to 13 |

| Structure (SMILES) | IC50 [nM] |
| --- | --- |
| CCS(=O)(=O)c1cccc(-c2cc(C(=O)NC[C@H](C)O)c(C)c3[nH]c4ncc(C)cc4c23)c1 [Compound 100, (S)-5-(3-(ethylsulfonyl)phenyl)-N-(2-hydroxypropyl)-3,8-dimethyl-9H-pyrido[2,3-b]indole-7-carboxamide] | 4 to 5.5 |
| CCS(=O)(=O)c1cccc(-c2cc(C(=O)NCCO)c(C)c3[nH]c4ncc(C)cc4c23)c1 [Compound 101, 5-(3-(ethylsulfonyl)phenyl)-N-(2-hydroxyethyl)-3,8-dimethyl-9H-pyrido[2,3-b]indole-7-carboxamide] | 4 to 5.5 |
| CCS(=O)(=O)c1cccc(-c2cc(C(=O)NCC(O)CO)c(C)c3[nH]c4ncc(C)cc4c23)c1 (stereo not drawn) [Compound 102, N-(2,3-dihydroxypropyl)-5-(3-(ethylsulfonyl)phenyl)-3,8-dimethyl-9H-pyrido[2,3-b]indole-7-carboxamide] | 4 to 5.5 |
| CCS(=O)(=O)c1cccc(-c2cc(C(=O)NCC(C)(C)O)c(C)c3[nH]c4ncc(C)cc4c23)c1 [Compound 103, 5-(3-(ethylsulfonyl)phenyl)-N-(2-hydroxy-2-methylpropyl)-3,8-dimethyl-9H-pyrido[2,3-b]indole-7-carboxamide] | 8.6 to 13 |
| CCS(=O)(=O)c1cccc(-c2cc(C(=O)NC3CCN(C(C)C)CC3)c(C)c3[nH]c4ncc(C)cc4c23)c1 [Compound 104, 5-(3-(ethylsulfonyl)phenyl)-N-(1-isopropylpiperidin-4-yl)-3,8-dimethyl-9H-pyrido[2,3-b]indole-7-carboxamide] | 8.6 to 13 |
| CCN1CCC(NC(=O)c2cc(-c3cccc(S(=O)(=O)CC)c3)c3c([nH]c4ncc(C)cc43)c2C)CC1 [Compound 105, N-(1-ethylpiperidin-4-yl)-5-(3-(ethylsulfonyl)phenyl)-3,8-dimethyl-9H-pyrido[2,3-b]indole-7-carboxamide] | > 13 |
| CCS(=O)(=O)c1cccc(-c2cc(C(=O)Nc3nccs3)c(C)c3[nH]c4ncc(C)cc4c23)c1 [Compound 106] | 5.6 to 8.5 |
| CCS(=O)(=O)c1cccc(-c2cc(C(=O)NCCOCC(F)(F)F)c(C)c3[nH]c4ncc(C)cc4c23)c1 [Compound 107] | 8.6 to 13 |
| CCS(=O)(=O)c1cccc(-c2cc(C(=O)N[C@@H]3CCCNC3)c(C)c3[nH]c4ncc(C)cc4c23)c1 [Compound 108, (R)-5-(3-(ethylsulfonyl)phenyl)-3,8-dimethyl-N-(piperidin-3-yl)-9H-pyrido[2,3-b]indole-7-carboxamide] | > 13 |
| CCS(=O)(=O)c1cccc(-c2cc(C(=O)NCCOCCO)c(C)c3[nH]c4ncc(C)cc4c23)c1 [Compound 111] | 5.6 to 8.5 |
| CCS(=O)(=O)c1cccc(-c2cc(C(=O)NCCN(C)C)c(C)c3[nH]c4ncc(C)cc4c23)c1 [Compound 113] | 8.6 to 13 |
| CCS(=O)(=O)c1cccc(-c2cc(C(=O)NCC3CCN(C)CC3)c(C)c3[nH]c4ncc(C)cc4c23)c1 [Compound 114, 5-(3-(ethylsulfonyl)phenyl)-3,8-dimethyl-N-((1-methylpiperidin-4-yl)methyl)-9H-pyrido[2,3-b]indole-7-carboxamide] | 5.6 to 8.5 |
| CCS(=O)(=O)c1cccc(-c2cc(C(=O)NCCCN(C)C)c(C)c3[nH]c4ncc(C)cc4c23)c1 [Compound 115, N-(3-(dimethylamino)propyl)-5-(3-(ethylsulfonyl)phenyl)-3,8-dimethyl-9H-pyrido[2,3-b]indole-7-carboxamide] | 8.6 to 13 |
| CCS(=O)(=O)c1cccc(-c2cc(C(=O)NCCN3CCCC3)c(C)c3[nH]c4ncc(C)cc4c23)c1 [Compound 116, 5-(3-(ethylsulfonyl)phenyl)-3,8-dimethyl-N-(2-(pyrrolidin-1-yl)ethyl)-9H-pyrido[2,3-b]indole-7-carboxamide] | 8.6 to 13 |
| Cc1cnc2[nH]c3c(C)c(C(=O)NC4CCN(C)CC4)cc(-c4cccc(NC(=O)C5CC5)c4)c3c2c1 [Compound 120, 5-(3-(cyclopropanecarboxamido)phenyl)-3,8-dimethyl-N-(1-methyl-piperidin-4-yl)-9H-pyrido[2,3-b]indole-7-carboxamide] | 5.6 to 8.5 |
| Cc1cnc2[nH]c3c(C)c(C(=O)NCCN(C)C)cc(-c4cccc(C(=O)NC5CC5)c4)c3c2c1 [Compound 122, 5-(3-(cyclopropylcarbamoyl)phenyl)-N-(2-(dimethylamino)ethyl)-3,8-dimethyl-9H-pyrido[2,3-b]indole-7-carboxamide] | > 13 |
| CCS(=O)(=O)c1cccc(-c2cc(C(=O)OC)cc3[nH]c4ncc(C)cc4c23)c1 [Compound 133, 5-(3-Ethanesulfonyl-phenyl)-3-methyl-9H-pyrido[2,3-b]indole-7-carboxylic acid methyl ester] | 8.6 to 13 |
| CCS(=O)(=O)c1cccc(-c2cc(CO)cc3[nH]c4ncc(C)cc4c23)c1 [Compound 134, [5-(3-Ethanesulfonyl-phenyl)-3-methyl-9H-pyrido[2,3-b]indol-7-yl]-methanol] | < 4 |
